Experimental data reported in US20050137806A1 (priority 2003, published 2005).
Counter-ions that a name gives are not always drawn.

Tested on: a cell line
Assay type: cell-based
Settings: for mitotic index as a function of drug concentration (dose response path): FIG. 2A, drugs in aqueous DMSO, multiple concentrations, fraction of cells in mitosis
Description: As shown, four different drugs were tested against a cell line at multiple concentrations. Taxol, one of the drugs, was tested twice. For each drug at each concentration various images were taken to extract various cellular features by image analysis. In some cases, basic extracted features are analyzed using appropriate classification algorithm to provide higher-level biological classifications such as mitotic state. In FIG. 2A, the feature is “mitotic index” (a numerical classification of the cells an image on basis of the fraction of them in mitosis) shown as the dependent variable with respect to concentration in a two-dimensional plot.
All drugs were provided in an aqueous solution of dimethyl sulfoxide (DMSO). As a negative control, the cells were exposed to aqueous DMSO without any drug present. Normally, an aqueous DMSO solution is used as the solvent for delivering drugs to samples. The feature values extracted for cells exposed to the DMSO control are shown as signatures 207.
Another approach replaces the concentration variable (generally a level of stimulus variable) with another variable that can depict a trajectory but is relatively independent of potency. In other words, the chosen feature space is independent (or largely independent) of dose (concentration). […] This new variable is a measure of the number of cells that survived the treatment. Because the variable changes only when the drug begins taking effect (regardless of absolute concentration), it effectively puts all curves on the same potency scale. Using this plot, one can more rigorously classify Taxol and Cytochalasin A as having the same mechanism of action (based on mitotic index as the dependent variable).

SMILES	mitotic index as a function of drug concentration (dose response path)	mitotic index versus number of cells (response path comparison) (FIG. 2B, concentration not displayed, number of cells that survived treatment as axis)
CC[C@]1(O)C[C@@H]2CN(CCc3c([nH]c4ccccc34)[C@@](C(=O)OC)(c3cc4c(cc3OC)N(C)[C@H]3[C@@](O)(C(=O)OC)[C@H](OC(C)=O)[C@]5(CC)C=CCN6CC[C@]43[C@@H]65)C2)C1 [Vinblastine Sulfate]	relatively high numerical value of mitotic index at various concentrations	–
CC(=O)O[C@H]1C(=O)[C@@]2(C)[C@H]([C@H](OC(=O)c3ccccc3)[C@]3(O)C[C@H](OC(=O)[C@H](O)[C@@H](NC(=O)c4ccccc4)c4ccccc4)C(C)=C1C3(C)C)[C@]1(OC(C)=O)CO[C@@H]1C[C@@H]2O [Taxol]	S-shaped	act similarly to the tested concentrations of Vinblastine Sulfate
CC[C@@H]1/C=C/C=C/C[C@H](C)[C@H](O)[C@](C)(O)C(=O)[C@H](C)[C@@H](O)[C@H](C)C(=O)[C@H](C)[C@@H](O)[C@H](C)/C=C/C(=O)O[C@H]2[C@@H](C)[C@@H](CC1)O[C@@]1(CC[C@@H](C)[C@@H](C[C@H](C)O)O1)[C@@H]2C [Oligomycin A]	very little impact on mitotic index until relatively high concentrations are used	–
C=C1[C@@H](C)[C@H]2[C@H](Cc3ccccc3)NC(=O)[C@]23OC(=O)/C=C/C(=O)CCC[C@@H](C)C/C=C/[C@H]3[C@@H]1O [Cytochalasin A]	S-shaped	–
